Results as given in patent publication US5457092A, “Methods of promoting bone growth in mammals comprising administration of modified parathyroid hormone” (Gesellschaft fur Biotechnologische Forschung mbH (GBF), priority 1987, dated 1995).

Columns and labels:
[1] = test system: chondrocytes from sterna of 16-day-old embryonic chicks; experiment: Stimulation of DNA synthesis in chondrocytes by PTH fragments (Table 1); assay type: cell-based, chick; conditions: for [^3 H]thymidine incorporation: 4 h, control 139 ± 6; for E/C: stimulated / non-induced control cells
Method: Chondrocytes were isolated from sterna of 16-day-old embryonic chicks according to J. Biol. Chem., 261 (1986) 7997-8001 (10; Yasui et al.) with some modifications. Collagenase was dissolved in Hanks' balanced salt solution (0.4 mM Na2 HPO4, 140 mN NaCl, 5.3 mM KCl, 0.4 mM MgSO4, 1.3 mM CaCl2, 0.4 mM KH2 PO4, 0.5 mM MglC2, 5 mM glucose, 0.05% gentamicin) at a concentration of 286 units/ml. Sterna were treated repeatedly for 30 min with collagenase solution at 37° C. Cells first released by this procedure were discarded because of their very poor responsiveness towards PTH. The collagenase treatment was subsequently repeated leading to a highly homogenous cell population of chondrocytes. The cells obtained by a second collagenase treatment were collected by centrifugation (1000 rpm, 10 min), washed twice with medium (Dulbecco's modified Eagle's medium, GIBCO, supplemented with NaHCO3 (45 mM), glutamine (2 mM), penicillin G/streptomycin (65 mg/1 and 100 mg/l, respectively), Hepes (10 mM, pH 7.2), and FCS (10% v/v) and counted.
The DNA synthesis rate was assayed in monolayer culture by the incorporation of ]^3 H]thymidine into perchloric acid-precipitable material. […] After 17 h, the medium was replaced by 200 μl of serum-free medium. After 4 days, chondrocytes were incubated for 4 h with the appropriate effector and 1μ Ci of [^3 H]thymidine. Subsequently, medium was removed and the cells were washed twice with 200 μl of phosphate-buffered saline (PBS: 137 mM NaCl, 2.7 mN KCl, 1.5 mM KH2 PO4, 0.8 mN Na2 HPO4, pH 7.0). Then cells were lysed by 100 μl of 2% (v/v) Nonidet P- 40 and 2% (w/v) sodium dodecyl sulfate treatment and the perchloric acid-insoluble material was precipitated by adding an equal volume of ice-cold 2% (w/v) perchloric acid in the presence of 1% herring sperm DNA as carrier. After storage for 10 min at -20° C., the precipitated material of each well was transferred to glass fiber filters with a Scatron--As semiautomatic cell harvester. Filters were dried at 80° C. for 20 min, transferred into scintillation vials, and 2 ml of scintillation mixture (scintillator 299; United Technology Pachard) were added. Radioactivity of the samples was determined with a β counter (Minimax; United Technology Pachard). Each test consisted of 5 up to 10 identically treated wells and was repeated at least twice with freshly prepared chondrocytes.
The incorporation of [^3 H]thymidine by non-induced control cells and by stimulated cells is shown by C and E, respectively. The results shown mean ±S.E. for n parallel cell cultures.

[2] = test system: osteoblast enriched rat embryo calvaria cell cultures; experiment: Cyclic AMP production in rat embryo calvaria cell cultures; assay type: cell-based; conditions: 100 nM; 15 min; control 29 ± 2.9 pmol/mg of protein
Method: (§1) FIG. 10 is a graphical representation showing the dose dependent stimulation by bPTH (1-84) of osteoblast enriched rat embryo calvaria cell cultures. Experimental details for the determination of cyclic AMP (.quadrature.) (15 min after stimulation) and incorporation of [^3 H]thymidine into DNA ( ) and CK ( ) specific activity (24 h after stimulation) are given below. The results are means ±S.E.M., N≥5. In several cases the S.E.M. was less than the size of the symbol. Control values were: cyclic AMP, 25±5 pmol/mg of protein; DNA, 240±30 c.p.m./μg of DNA; CK, 200±20 nmol/min per mg of protein. Statistical significance of differences between treated and corresponding control groups by Student's T test: *P<0.05; **P<0.01.
(§2) Rat calvaria cultures were treated with fragments of PTH derived from the central portion of the molecule.

[3] = test system: osteoblast enriched rat embryo calvaria cell cultures; experiment: CK specific activity in rat embryo calvaria cell cultures; assay type: cell-based; conditions: 100 nM; 24 h; control 457 ± 46 nmol/min per mg of protein
Method: as §1, §2

[4] = test system: osteoblast enriched rat embryo calvaria cell cultures; experiment: DNA synthesis ([3H]thymidine incorporation) in rat embryo calvaria cell cultures; assay type: cell-based
Method: as §1

[5] = test system: ROS 17/2.8 osteoblast-like cells; experiment: Cyclic AMP production in ROS 17/2.8 osteoblast-like cells; assay type: cell-based, rat; conditions: 400 nM; control 29 ± 5.2 pmol/mg of protein
Method: When cultures of the widely used model for osteoblasts, the osteoblast-likeclone of rat osteosarcoma, ROS 17/2.8 (Endocrinology (Baltimore), 107 (1980) 1494-1503=12; Majeska et al.), were incubated with full-length PTH and PTH fragments (Table 4), cyclic AMP production was stimulated only by bPTH(1-84) and hPTH(1-34), whereas hPTH(25-39), hPTH(27-48), hPTH(28-48) and hPTH(34-47) were ineffective.

[6] = test system: ROS 17/2.8 osteoblast-like cells; experiment: CK specific activity in ROS 17/2.8 osteoblast-like cells; assay type: cell-based, rat; conditions: 400 nM; control 698 ± 70 nmol/min per mg of protein
[7] = test system: ROS 17/2.8 osteoblast-like cells; experiment: DNA synthesis in ROS 17/2.8 osteoblast-like cells; assay type: cell-based, rat; conditions: 400 nM; control 392 ± 58 c.p.m./μg of DNA

## hPTH(28-47): PTH fragment 28-47, human source (LQDVHNFVALGAPLAPRDAG; Parathyroid hormone; UniProt P01270 59-78, looked up, fragment)
[1]; 4.5 × 10^-5 mol/l
  [^3 H]thymidine incorporation: 276 ± 36 cpm
  E/C: 1.99
[1]; 4.5 × 10^-6 mol/l
  [^3 H]thymidine incorporation: 202 ± 17 cpm
  E/C: 1.45
[1]; 4.5 × 10^-7 mol/l
  [^3 H]thymidine incorporation: 205 ± 22 cpm
  E/C: 1.47
[1]; 4.5 × 10^-8 mol/l
  [^3 H]thymidine incorporation: 196 ± 25 cpm
  E/C: 1.41
[2]
  Cyclic AMP concentration, effect of fragment (experimental value/control value): 0.52 ± 0.39
[3]
  CK specific activity, effect of fragment (experimental value/control value): 2.18 ± 0.12
[4]
  stimulation of DNA synthesis (in words): less
[4]; 100 nM, 24 h, control 624 ± 73 c.p.m./μg of DNA
  [3H)Thymidine incorporation, effect of fragment (experimental value/control value): 2.11 ± 0.09
[5]
  Cyclic AMP, effect of fragment (experimental value/control value): 1.03 ± 0.16
[6]
  CK specific activity, effect of fragment (experimental value/control value): 1.66 ± 0.11
[7]
  [^3 H]Thymidine incorporation, effect of fragment (experimental value/control value): 1.44 ± 0.11
